Results published in publication PMC11424460, “Inhibitory effects of calcium channel blockers nisoldipine and nimodipine on ivacaftor metabolism and their underlying mechanism” (Frontiers in Pharmacology, 2024).
“Also recorded” adds a separate entry of the source. Where two headings read alike, the source gives them in different places.

Legend:
[1] = system: ivacaftor metabolism in rat liver microsomes (RLM); assay: Screening of 79 drugs (100 μM) for inhibition of ivacaftor metabolism in RLM incubation; format: in vitro ADME; details: each drug 100 μM, 0.3 mg/mL RLM
Protocol: The supernatants were centrifuged at 100,000 × g for 1 h, and the pellets were resuspended with cold […] PBS. Protein concentrations were determined by Bradford Protein Assay Kit (Thermo Scientific, Waltham, MA, United States).
This system was made up of 200 μL of incubation solution consisting of 0.3 mg/mL RLM or 0.4 mg/mL HLM, 1.0 mM NADPH, pH 7.4 PBS and ivacaftor. […] The solution should be pre-incubated at 37°C for 5 min before adding NADPH. Following the addition of NADPH, the mixture should be incubated for 40 min. The reaction should then be stopped at −80°C. After the enzyme reaction was completed, 20 μL of 500 ng/mL IS solution and 400 μL acetonitrile (protein precipitating agent) were added to the mixture. The mixture was vortexed for 2 min and then centrifuged at 13,000 rpm for 10 min. After centrifugation, 100 μL of the supernatant was quantified using UPLC-MS/MS.
Each drug was used at a concentration of 100 μM as the inhibitor. The culture system was 200 μL and included 0.3 mg/mL RLM, 1.0 mM NADPH, PBS, ivacaftor, and inhibitor. The reaction procedure was the same as the enzyme reaction mentioned above Section 2.2.

[2] = molecular target: ivacaftor metabolism in rat liver microsomes (RLM); assay: IC50 and inhibition mechanism (Lineweaver-Burk, Ki, αKi) on ivacaftor metabolism in RLM; format: in vitro ADME; details: for IC50: ivacaftor 8.8 μM; for Inhibition type: Lineweaver-Burk plots
Protocol: (§1) This system was made up of 200 μL of incubation solution consisting of 0.3 mg/mL RLM or 0.4 mg/mL HLM, 1.0 mM NADPH, pH 7.4 PBS and ivacaftor. […] In HLM, a range of concentrations (0.1, 1, 2, 4, 12, 25 μM) of ivacaftor was used to determine Km. The solution should be pre-incubated at 37°C for 5 min before adding NADPH. Following the addition of NADPH, the mixture should be incubated for 40 min. The reaction should then be stopped at −80°C. After the enzyme reaction was completed, 20 μL of 500 ng/mL IS solution and 400 μL acetonitrile (protein precipitating agent) were added to the mixture. The mixture was vortexed for 2 min and then centrifuged at 13,000 rpm for 10 min. After centrifugation, 100 μL of the supernatant was quantified using UPLC-MS/MS.
(§2) The IC50 values for the inhibitory effects of nisoldipine and nimodipine on ivacaftor in HLM were also determined. […] The final concentration of DMSO in the culture system is less than 1%. […] The incubation and post-treatment procedures were consistent with the enzyme incubation of ivacaftor described above Section 2.2.
(§3) The incubation and post-treatment procedures were consistent with the enzyme incubation of ivacaftor described above Section 2.2.
(§4) Km values, IC50 values, Lineweaver-Burk plots and mean plasma concentration-time curves were all generated using GraphPad Prism 9.0 software (GraphPad Software, Inc., United States). Pharmacokinetic parameters of ivacaftor and M1 were obtained by analyzing them using the non-compartmental model of Drug and Statistics (DAS) (version 3.0, Mathematical Pharmacology Professional Committee of China, Shanghai, China), and a one-way ANOVA was performed to compare the pharmacokinetics of the three groups of rats using SPSS (version 26.0; SPSS Inc., Chicago, IL, United States). A P-value <0.05 was considered statistically significant. Data were represented as mean ± standard deviation (SD).

[3] = molecular target: ivacaftor metabolism in human liver microsomes (HLM); assay: IC50 and inhibition mechanism (Lineweaver-Burk, Ki, αKi) on ivacaftor metabolism in HLM; format: in vitro ADME; details: for Inhibition type: Lineweaver-Burk plots; for IC50: ivacaftor 6.8 μM
Protocol: as §1, §2, §3, §4

CYP3A = details: strong CYP3A inhibitor co-administered; FDA report; ref Garg et al., 2019; cited from earlier work

## CCOC(=O)C1=C(C)NC(C)=C(C(=O)OC)C1c1cccc(Cl)c1Cl (stereo not drawn) [Felodipine]
[1]
  Metabolic rate (Mean ± SD, % of control): 13.47 ± 1.71 % of control
[2]
  IC50: 15.6 µM

## CCOC(=O)C1=C(C)NC(C)=C(C(=O)OCC)C1c1ccccc1/C=C/C(=O)OC(C)(C)C [Lacidipine]
[1]
  Metabolic rate (Mean ± SD, % of control): 14.13 ± 1.07 % of control
[2]
  IC50: 2.17 µM

## C[C@@H]1O[C@@H](O[C@H]2[C@H](Oc3cc(O)c4c(c3)O[C@H](c3ccc(O)cc3)CC4=O)O[C@H](CO)[C@@H](O)[C@@H]2O)[C@H](O)[C@H](O)[C@H]1O [Naringin]
[1]
  Metabolic rate (Mean ± SD, % of control): 100.87 ± 17.42 % of control

## COCCOC(=O)C1=C(C)NC(C)=C(C(=O)OC(C)C)C1c1cccc([N+](=O)[O-])c1 (stereo not drawn) [Nimodipine]
[1]
  Metabolic rate (Mean ± SD, % of control): 7.84 ± 0.43 % of control
[3]
  Ki: 5.87 µM
  Inhibition type: Competitive inhibition
  IC50: 7.15 µM
[3]; listed as nimodipine
  IC50: < 10 µM
[2]
  Ki: 3.26 µM
  Inhibition type: Competitive inhibition
  IC50: 4.57 µM
[2]; listed as nimodipine
  IC50: < 10 µM

## COC(=O)C1=C(C)NC(C)=C(C(=O)OCC(C)C)C1c1ccccc1[N+](=O)[O-] (stereo not drawn) [Nisoldipine]
[1]
  Metabolic rate (Mean ± SD, % of control): 7.29 ± 4.05 % of control
[3]
  Ki: 3.92 µM
  α: 9.03
  Inhibition type: Non-competitive inhibition and competitive inhibition
  IC50: 9.1 µM
[3]; listed as nisoldipine
  Inhibition type: mixed inhibition; also recorded: mixed-type of non-competitive and competitive inhibition
  IC50: < 10 µM
  α: 35.40
[2]
  Ki: 3.35 µM
  α: 2.53
  Inhibition type: Non-competitive inhibition and competitive inhibition
  IC50: 6.55 µM
[2]; listed as nisoldipine
  Inhibition type: mixed inhibition; also recorded: mixed-type of non-competitive and competitive inhibition
  IC50: < 10 µM
  α: 8.48

## CCOC(=O)C1=C(C)NC(C)=C(C(=O)OC)C1c1cccc([N+](=O)[O-])c1 (stereo not drawn) [Nitrendipine]
[1]
  Metabolic rate (Mean ± SD, % of control): 27.00 ± 0.21 % of control

## CCOc1ccc(Cc2cc([C@]34OC[C@](CO)(O3)[C@@H](O)[C@H](O)[C@H]4O)ccc2Cl)cc1 [PF-04971729]
[1]
  Metabolic rate (Mean ± SD, % of control): 92.72 ± 3.41 % of control

## O=C(/C=C/C=C/c1ccc2c(c1)OCO2)N1CCCCC1 [Piperine]
[1]
  Metabolic rate (Mean ± SD, % of control): 203.66 ± 9.93 % of control

## CC(=O)Oc1cc2c(s1)CCN(C(C(=O)C1CC1)c1ccccc1F)C2 (stereo not drawn) [Prasugrel]
[1]
  Metabolic rate (Mean ± SD, % of control): 31.93 ± 1.49 % of control

## CCCNCC(O)COc1ccccc1C(=O)CCc1ccccc1 (stereo not drawn) [Propafenone]
[1]
  Metabolic rate (Mean ± SD, % of control): 54.95 ± 0.92 % of control

## O=c1c(O)c(-c2ccc(O)c(O)c2)oc2cc(O)cc(O)c12 [Quercetin]
[1]
  Metabolic rate (Mean ± SD, % of control): 57.86 ± 5.58 % of control

## C=C[C@H]1C[N@@]2CC[C@H]1C[C@@H]2[C@@H](O)c1ccnc2ccc(OC)cc12 [Quinidine]
[1]
  Metabolic rate (Mean ± SD, % of control): 37.44 ± 4.20 % of control

## Oc1ccc(/C=C/c2cc(O)cc(O)c2)cc1 [Resveratrol]
[1]
  Metabolic rate (Mean ± SD, % of control): 18.69 ± 0.46 % of control

## O=C(NC[C@H]1CN(c2ccc(N3CCOCC3=O)cc2)C(=O)O1)c1ccc(Cl)s1 [Rivaroxaban]
[1]
  Metabolic rate (Mean ± SD, % of control): 85.62 ± 0.92 % of control

## C[C@@H]1O[C@@H](OC[C@H]2O[C@@H](Oc3c(-c4ccc(O)c(O)c4)oc4cc(O)cc(O)c4c3=O)[C@H](O)[C@@H](O)[C@@H]2O)[C@H](O)[C@H](O)[C@H]1O [Rutin]
[1]
  Metabolic rate (Mean ± SD, % of control): 91.63 ± 0.31 % of control

## CC(C)N(CCCCOCC(=O)NS(C)(=O)=O)c1cnc(-c2ccccc2)c(-c2ccccc2)n1 [Selexipag]
[1]
  Metabolic rate (Mean ± SD, % of control): 28.78 ± 2.21 % of control

## CC(C)=CC[C@@H](O)C1=CC(=O)c2c(O)ccc(O)c2C1=O [Shikonin]
[1]
  Metabolic rate (Mean ± SD, % of control): 41.65 ± 3.13 % of control

## COc1cc(C2Oc3cc([C@H]4Oc5cc(O)cc(O)c5C(=O)[C@@H]4O)ccc3OC2CO)ccc1O (stereo partly drawn) [Silibinin]
[1]
  Metabolic rate (Mean ± SD, % of control): 54.73 ± 1.11 % of control

## N[C@@H](CC(=O)N1CCn2c(nnc2C(F)(F)F)C1)Cc1cc(F)c(F)cc1F [Sitagliptin]
[1]
  Metabolic rate (Mean ± SD, % of control): 97.11 ± 2.13 % of control

## O=C1C=CC[C@@H]2[C@H]3CCCN4CCC[C@@H](CN12)[C@@H]34 [Sophocarpine]
[1]
  Metabolic rate (Mean ± SD, % of control): 93.46 ± 2.14 % of control

## O=C1CCC[C@@H]2[C@H]3CCCN4CCC[C@H](CN12)[C@@H]34 [Sophoridine]
[1]
  Metabolic rate (Mean ± SD, % of control): 109.11 ± 5.90 % of control

## CCCc1nc2c(C)cc(-c3nc4ccccc4n3C)cc2n1Cc1ccc(-c2ccccc2C(=O)O)cc1 [Telmisartan]
[1]
  Metabolic rate (Mean ± SD, % of control): 14.98 ± 1.00 % of control

## COc1ccc2cc1Oc1ccc(cc1)C[C@H]1c3cc(c(OC)cc3CCN1C)Oc1c(OC)c(OC)cc3c1[C@H](C2)N(C)CC3 [Tetrandrine]
[1]
  Metabolic rate (Mean ± SD, % of control): 71.96 ± 16.27 % of control

## COC(=O)Nc1c(N)nc(-c2nn(Cc3ccccc3F)c3ncc(F)cc23)nc1N [Vericiguat]
[1]
  Metabolic rate (Mean ± SD, % of control): 76.32 ± 1.42 % of control

## Cc1ccc(Sc2ccccc2N2CCNCC2)c(C)c1 [Vortioxetine]
[1]
  Metabolic rate (Mean ± SD, % of control): 3.17 ± 0.50 % of control

## CC(=O)CC(c1ccccc1)c1c(O)c2ccccc2oc1=O (stereo not drawn) [Warfarin]
[1]
  Metabolic rate (Mean ± SD, % of control): 95.32 ± 3.41 % of control

## CSCCNc1nc(SCCC(F)(F)F)nc2c1ncn2[C@@H]1O[C@H](COP(=O)(O)OP(=O)(O)C(Cl)(Cl)P(=O)(O)O)[C@@H](O)[C@H]1O [cangrelor]
[1]
  Metabolic rate (Mean ± SD, % of control): 105.13 ± 0.21 % of control

## CCC(C)n1ncn(-c2ccc(N3CCN(c4ccc(OCC5COC(Cn6cncn6)(c6ccc(Cl)cc6Cl)O5)cc4)CC3)cc2)c1=O (stereo not drawn) [itraconazole]
CYP3A
  increase in AUC of ivacaftor when combined with the inhibitor: 15.6 fold

## CC(=O)N1CCN(c2ccc(OCC3COC(Cn4ccnc4)(c4ccc(Cl)cc4Cl)O3)cc2)CC1 (stereo not drawn) [ketoconazole]
CYP3A
  increase in AUC of ivacaftor when combined with the inhibitor: 8.5 fold

## CC(C)n1c(=O)cc(N[C@@H](C)c2ccccc2)[nH]c1=O [mavacamten]
[1]
  Metabolic rate (Mean ± SD, % of control): 94.17 ± 0.21 % of control
